Test results: patent publication US7404975B2, “Moringa crude extracts and their derived fractions with antifungal activities” (Academia Sinica, priority 2006, dated 2008)

Tested on: Epidermophyton floccosum
Test: Broth dilution anti-fungal susceptibility assay (NCCLS M38-A), MIC
Assay type: cell-based
Protocol: M. oleifera was grown and collected from Taichung, Taiwan. The seeds were de-hulled and the seed kernels dried at 100° C. for 24 h before extraction. The leaves were freshly harvested from M. oleifera trees of at least one-year-old and immediately air-dried. All materials were lyophilized and powdered before experiments. The dermatophytes used in this study were obtained from the Food Industry Research and Development Institute (FIRDI) in Taiwan. Trichophyton rubrum (BCRC 32805), Trichophyton mentagrophytes (BCRC 32066), Epidermophyton floccosum (BCRC 30531) and Microsporum canis (BCRC 30541) were maintained by monthly sub-culturing on Sabouraud dextrose agar (SDA) at 28° C.
The anti-fungal assays followed the protocol (document M38-A) of The National Committee for Clinical Laboratory Standards (NCCLS) in the USA. The protocol is a standard method for broth dilution anti-fungal susceptibility testing of filamentous fungi. 100× of the drug (such as ketoconozole; the MICs of this agent tested on the fungi described above were from 0.125 μg/ml to 12.5 μg/ml ) used for the control experiment. […] The minimal inhibitory concentration (MIC), which is defined as the lowest concentration of an anti-microbial agent preventing the visible growth of a microorganism in an agar or broth dilution susceptibility test (numerical score 0), was determined for each test sample.

Compound: CC(=O)N1CCN(c2ccc(OCC3COC(Cn4ccnc4)(c4ccc(Cl)cc4Cl)O3)cc2)CC1 (stereo not shown) [ketoconozole, ketoconazole]
- MIC (text comparison ketoconozole vs EOF): 0.125 ˜ig/ml
